This passage reports IC50 and Ki results from ChEMBL document CHEMBL3745640, “Challenges in the Discovery of Indoleamine 2,3-Dioxygenase 1 (IDO1) Inhibitors” (J Med Chem, 2015).

Assay [1] addresses T1, Indoleamine 2,3-dioxygenase 1 (Homo sapiens, UniProt P14902). Description: Inhibition of N-terminal His-tagged human recombinant IDO1 expressed in Escherichia coli using tryptophan as substrate by UV-visible absorption spectroscopy.
Assay [2] addresses T1, Indoleamine 2,3-dioxygenase 1. Kind of assay: Inhibition of N-terminal His-tagged human recombinant IDO1 expressed in Escherichia coli using L-tryptophan as substrate preincubated for 10 mins followed by substrate addition measured after 30 mins by plate reader analysis.
The target is the same in assay [3]. Description: Inhibition of C-terminal 6His-tagged human IDO using L-tryptophan as substrate preincubated for 5 mins followed by substrate addition measured after 15 mins by spectrophotometric analysis.
Assay [4] shares this target. Description: Inhibition of human recombinant IDO1 using L-tryptophan as substrate after 15 mins by Dixon plot analysis.
The nature of assay [5]: Competitive inhibition of rabbit small intestine IDO1 by double reciprocal plot analysis in presence of L-tryptophan. Set-up: species or system Oryctolagus cuniculus.
Assay [6] deals with T1, Indoleamine 2,3-dioxygenase 1. Description: Noncompetitive inhibition of human recombinant IDO1 expressed in Escherichia coli by Michaelis-Menton nonlinear regression plot analysis in presence of L-tryptophan.
The target is the same in assay [7]. Description: Inhibition of N-terminal His-tagged human recombinant IDO1 expressed in Escherichia coli using L-tryptophan as substrate by methylene blue/ascorbate assay.
Assay [8] shares this target. Kind of assay: Inhibition of IFN-gamma-stimulated IDO1 activity in human HeLa cells using L-tryptophan as substrate after 48 hrs by spectrophotometric analysis. Type of assay: cell-based.
Assay [9] has the same target. Description: Inhibition of human IDO1 in HEK293 cells after 20 hrs by plate reader assay. Type of assay: cell-based.
The target is the same in assay [10]. Kind of assay: Competitive inhibition of 6His-tagged human recombinant IDO expressed in Escherichia coli BL21DE3pLys.
Assay [11] has the same target. Description: Inhibition of human recombinant IDO1 expressed in yeast IS20-2B using tryptophan as substrate by methylene blue/ascorbate assay.
For assay [12] the target is unchanged. Kind of assay: Inhibition of IDO (unknown origin).
For assay [13] the target is unchanged. Description: Inhibition of human IDO using L-tryptophan as substrate preincubated for 5 mins followed by substrate addition measured after 15 mins by spectrophotometric analysis.
Assay [14] has the same target. Description: Inhibition of 6His-tagged human recombinant IDO1 expressed in Escherichia coli EC 539 using L-tryptophan as substrate after 1 hr by plate reader analysis.
The target is the same in assay [15]. Description: Inhibition of N-terminal hexa-Histidine tagged human IDO1 expressed in Escherichia coli using L-tryptophan as substrate after 30 mins by HPLC analysis.

T1 sequence (P14902 whole entry): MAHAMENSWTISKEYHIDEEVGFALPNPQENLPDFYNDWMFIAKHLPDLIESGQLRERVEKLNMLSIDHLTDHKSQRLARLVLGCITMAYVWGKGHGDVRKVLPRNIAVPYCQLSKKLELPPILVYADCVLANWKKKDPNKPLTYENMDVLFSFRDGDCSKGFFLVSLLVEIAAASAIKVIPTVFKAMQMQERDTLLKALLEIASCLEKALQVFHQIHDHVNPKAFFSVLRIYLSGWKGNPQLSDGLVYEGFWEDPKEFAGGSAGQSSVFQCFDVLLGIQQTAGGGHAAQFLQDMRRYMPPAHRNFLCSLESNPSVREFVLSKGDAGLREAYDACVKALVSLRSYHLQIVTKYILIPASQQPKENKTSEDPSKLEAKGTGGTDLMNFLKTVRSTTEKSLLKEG

As usually defined, the IC50 is the midpoint of a concentration-inhibition curve. For the compound `Nc1oc2c(-c3ccnc(N4CCOCC4)c3)nccc2c1Nc1ccc(F)c(Cl)c1`, the concentration for half-maximal inhibition (IC50) in [1] was less than 200 nM. For `COC1=CC(=O)c2oc(C)c(CO)c2C1=O`, in [2], the IC50 turned out to be 240 nM.

Consider `O=C(Cc1ccccc1)Nc1ccc(CCOc2ccccc2-c2cnc[nH]2)cc1`, for which the IC50 in assay [3] is less than 1000 nM.

By Ki is commonly meant a dissociation constant, usually derived from enzyme kinetics or from competition with a known ligand. As for `N=C1C=C(N)C(=O)c2[nH]c(=O)ccc21`, in [4], the Ki came to 4300 nM.

`N[C@@H](CC1=CCC=CC1)C(=O)O`: the Ki in assay [5] is 230000 nM. Consider `CC1(C)CCC2=C(O1)c1ccccc1C(=O)C2=O` [LAPACHONE], for which, in assay [6], the Ki is 100 nM. Regarding `CC1(C)CCC[C@]2(C)[C@H]3CC=C(C=O)CC(O)[C@]3(C=O)CC[C@@H]12` (stereo partly drawn), in assay [7], the IC50 turned out to be 7700 nM. Consider `CCc1ccccc1Nc1cnn[nH]1`, for which, in assay [8], the IC50 is less than 1000 nM.

`Cc1ccc(CC(=O)Nc2cc(-c3ccccc3-c3nnn[nH]3)ccc2N2CC3CC2CN3Cc2ccccc2)cc1` (stereo not drawn): the IC50 in assay [9] came out at 5 nM.

As for `CN1C(=O)C(Cc2c[nH]c3ccccc23)NC1=S` (stereo not drawn) [NECROSTATIN], the Ki in assay [10] was 12000 nM.

On to `C/N=C(N)/N=C(\N)Nc1cc2ccccc2c2ccccc12`, for which the Ki in [11] was determined as 1500 nM.

`CN1C(=O)c2ccccc2-n2c(nc3ccccc3c2=O)C1[C@H](O)c1ccccc1` (stereo partly drawn) had an IC50 in [12] of 21000 nM. `CC(C)CN(CC(C)C)c1ccc(C(CC(=O)O)C(F)(F)F)cc1NC(=O)Nc1ccc(F)cc1F` (stereo not drawn): in [9], it took 3 nM to reach half-maximal inhibition (IC50). In assay [13], `NOCc1ccccc1` showed an IC50 of less than 10000 nM. `COc1cccc2c1C(=O)C1=C(C[C@H](Cn3cc(-c4ccccc4)nn3)O[C@@H]1C)C2=O`: the IC50 in [14] was 6000 nM. Regarding `COc1cc(OC(=O)c2c(C)c(C)c(OC(=O)c3c(C)cc(O)c(C)c3O)c(C)c2OC)c(C)c(C)c1C(=O)O`, the IC50 in [12] was 15000 nM. Compound `CCCC(CCC)Oc1c(Br)cc(-c2ccccc2-c2nnn[nH]2)cc1NC(=O)Nc1ccccc1F` showed an IC50 in assay [9] of 3 nM. `N#CC(Nc1ccc(F)c(Cl)c1)c1cc(Cl)ccc1O` (stereo not drawn): the IC50 in [15] was less than 200 nM.
